{
  "source": "patent US20210361565A1",
  "about": "“Oral Pharmaceutical Composition of an NK-1 Antagonist” (Intervet Inc., priority 2017, published 2021)",
  "key": {"[1]": {"test_system": "centrally acting emetogens (apomorphine IV) and peripherally acting emetogens (syrup of ipecac orally)", "settings": "dogs; cited from earlier work"}, "[2]": {"test_system": "chemotherapy induced nausea and vomiting", "settings": "humans; cited from earlier work"}, "[3]": {"test_system": "apomorphine-induced emesis", "experiment": "Apomorphine-induced emesis model", "type": "in vivo, dog", "settings": "single oral dose 5 mg/kg; FIGS. 5A-5B", "description": "Apomorphine-induced emesis model is a well-established canine model to investigate antiemetic actions of new compounds and has been used in studies investigating new NK1 antagonists (Furukawa et al. Biol Pharm Bull 36:974-979, 2013) as well as Cerenia and other antiemetic drugs used in dogs (Sedlacek et al. J Vet Pharmacol Therap 31:533-537, 2008).\nThe canine model of apomorphine-induced emesis is a well-established model to investigate antiemetic actions of new compounds and has been used in studies investigating new NK1 antagonists (Furukawa et al. Biol Pharm Bull 36:974-979, 2013) as well as Cerenia and other antiemetic drugs used in dogs (Sedlacek et al. J Vet Pharmacol Therap 31:533-537, 2008). This model was used to evaluate the antiemetic activity of telmapitant in non-aqueous solution formulations and solid formulations (FIGS. 4A and 4B). The onset of action (FIGS. 4A and 4B) as well as the duration of activity (FIGS. 5A and 5B) were investigated after a single oral administration. Intravenous (IV) administration of apomorphine (emetogenic challenge 0.03 mg/kg) was delivered to all individuals 2 h, 4 h, 6 h, 8 h, 24 h, and 120 h (FIGS. 4A and 4B) or 1 d, 3 d, 5 d, 6 d, and 7 d (FIGS. 5A and 5B). […] Any emetic events (vomiting episodes and/or retches) following each emetogenic challenge were recorded for 20 min. […]"}},
  "data": [
    {"smiles": "COc1ccc(C(C)(C)C)cc1CN[C@H]1C2CCN(CC2)[C@H]1C(c1ccccc1)c1ccccc1", "note": "[maropitant]", "values": [
      {"measurement": "antiemetic effectiveness against emetogens", "setting": "[1]", "value": "effective"}
    ]},
    {"smiles": "C[C@@H](OC[C@@]1(c2ccccc2)CC[C@]2(CCC(=O)N2)CN1)c1cc(C(F)(F)F)cc(C(F)(F)F)c1", "note": "[rolapitant]", "values": [
      {"measurement": "efficacy and safety for prevention of chemotherapy induced nausea and vomiting", "setting": "[2]", "value": "efficacious and safe"}
    ]},
    {"smiles": "C[C@@H](OC[C@@]1(c2ccccc2)CC[C@]2(CN1)NC(=O)NC2=O)c1cc(C(F)(F)F)cc(C(F)(F)F)c1", "note": "[telmapitant, (5R,8S)-8-[[(1R)-1-[3,5-bis(trifluoromethyl)phenyl]ethoxy]methyl]-8-phenyl-1,3,9-triazaspiro[4.5]decane-2,4-dione]", "values": [
      {"measurement": "antiemetic data at 5 mg/kg versus 7 mg/kg", "setting": "[3]", "value": "not significantly different"}
    ]}
  ]
}
